In patent US10806121B2, “Animal litter containing a pheromone composition” (Sergeant's Pet Care Products, LLC, priority 2014, dated 2020):

Tested on: cats
Experiment: Study 1: cat litter preference, pheromone-treated litter versus control litter
Type: in vivo
Description: In Study 1, four different treatments were tested: Androstenone (ANDRO); cat urinary pheromone, 3-mercapto-3-methyl-1-butanol (CAT); rabbit pheromone, 2-methylbut-2-enal (RP); and both the cat urinary pheromone and the rabbit pheromone (CAT+RP). 40 individual cats were used in this study to assess their preference to or aversion from a control litter versus a litter under one of the four treatments. Each treatment was tested with 10 cats. Litter was divided into 3 lb aliquots, and each aliquot was either used as a control or was mixed with a pheromone (or a pheromone combination) to be tested at a level of 10 μg/3-lb (or 7.3 μg/kg).
On Day 0, each cat was placed into an assigned chamber randomly placed with two litter boxes, one control and one treated. Each of the two litter boxes was weighed and the weight was recorded. The camera in the chamber was properly aligned to give a full view of the chamber and started taping on Day 0. On Day 1, 24 hours after the start of taping on Day 0, each of the two litter boxes in the chamber was weighed and the weight was recorded. On Day 2, 48 hours after the start of taping on Day 0, each of the two litter boxes in the chamber was again weighed. Litter can be disposed of after weighing on Day 2, and the camera was then turned off. The weights of the litter boxes over the 48 hours were used to determine whether the litter was used or not, and at which preference level.
The data were expressed as both a percentage preference (% of the cats using the treated litter in each treatment group) and by the weight of the litter (the litter gets heavier as it is soiled). It was expected that if the added pheromone had no effect on litter preference, 50% of the cats would use the treated litter and 50% would use the control litter. […] Further, the weight difference between a control litter or litter under treatment was used to show the relative strength of the effect of a particular treatment on cat's litter use behavior. During the study, some cats (N=3; 2 in CAT+RP and 1 in RP) spilled their litter and their data were unreliable and were not included.

[1] = treated versus control litter weight after 2 days

In the case of `C/C=C(\C)C=O` [RP, 2-methylbut-2-enal], the “increase of litter attraction” value (7 out of 9 cats chose treated litter) is reported as “more than 3.5 times”, the “percentage preference (% of the cats using the treated litter)” value (litter treated at 10 μg/3-lb (7.3 μg/kg), choice against control litter over 48 hours, 50% = no effect) is reported as 78% and the “Litter Type Use, g, TRT (weights of litter after 2 days)” value (treated litter box, 10 μg/3-lb, SE = 0.023) is reported as 0.76 g. For the same compound, the “Relative Difference, %” value [1] was 138%, the “Significantly Different” value [1] was “Yes” and the “effect on cats' litter preference” value (treated versus control litter, 48 hours) was “highly preferred over the control litter”.
